Source: ChEMBL document CHEMBL1139605, “Novel ketal ligands for the glucocorticoid receptor: in vitro and in vivo activity” (Bioorg Med Chem Lett, 2005)

Key:
Mus musculus = species: Mus musculus; test: Effective concentration required for inhibition of interleukin-6 in mouse thioglycolate-elicited peritoneal exudate cell line using 57% radiolabeled Dexamethasone; type: functional
A549 = test: Effective concentration for inhibition of interleukin-6 in human A549 lung carcinoma cell line using 47% radiolabeled Dexamethasone; type: functional, cell-based
Glucocorticoid receptor = molecular target: T1, Glucocorticoid receptor (Homo sapiens, UniProt P04150); test: Inhibition of human glucocorticoid receptor alpha isoform
T1 sequence (P04150 whole entry): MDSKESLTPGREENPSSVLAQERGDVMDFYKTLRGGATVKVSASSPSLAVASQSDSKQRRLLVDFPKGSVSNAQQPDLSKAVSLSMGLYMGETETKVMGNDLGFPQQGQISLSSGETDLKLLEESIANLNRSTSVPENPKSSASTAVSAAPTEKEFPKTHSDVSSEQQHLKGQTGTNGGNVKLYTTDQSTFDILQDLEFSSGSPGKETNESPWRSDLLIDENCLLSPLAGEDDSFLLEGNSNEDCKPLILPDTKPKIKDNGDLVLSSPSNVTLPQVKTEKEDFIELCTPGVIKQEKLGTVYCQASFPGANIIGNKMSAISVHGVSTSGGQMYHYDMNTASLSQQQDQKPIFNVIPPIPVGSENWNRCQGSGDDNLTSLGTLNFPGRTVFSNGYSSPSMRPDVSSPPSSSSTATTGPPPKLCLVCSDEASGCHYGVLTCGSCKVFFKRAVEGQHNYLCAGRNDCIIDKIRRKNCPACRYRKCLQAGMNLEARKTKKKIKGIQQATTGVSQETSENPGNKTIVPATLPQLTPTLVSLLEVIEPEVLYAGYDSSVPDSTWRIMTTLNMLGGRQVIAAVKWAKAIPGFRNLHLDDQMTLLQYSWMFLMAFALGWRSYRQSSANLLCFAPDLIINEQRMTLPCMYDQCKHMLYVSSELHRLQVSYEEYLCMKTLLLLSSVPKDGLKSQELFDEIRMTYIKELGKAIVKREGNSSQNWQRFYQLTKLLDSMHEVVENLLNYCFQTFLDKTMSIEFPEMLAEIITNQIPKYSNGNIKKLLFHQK

EC50 (Mus musculus): 0.183 µM
EC50 (A549): 0.025 µM
IC50 (Glucocorticoid receptor): 0.0056 µM
SMILES: C=C[C@H]1CO[C@]2(CCC3=Cc4c(cnn4-c4ccc(F)cc4)C[C@@]32C)O1
